Measured values taken from ChEMBL document CHEMBL1201862, “PubChem BioAssay data set” (2004).
Values belong to the molecule of their own block, whether it stands above or below them. The source made the active and inactive calls.

Legend:
Caspase-3 = target: T1, Caspase-3 (Homo sapiens, UniProt P42574); type: functional;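 also: Dose-response selectivity test against caspase-3 for candidate inhibitors of sentrin-specific proteases (SENPs)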
T1 sequence (P42574 whole entry): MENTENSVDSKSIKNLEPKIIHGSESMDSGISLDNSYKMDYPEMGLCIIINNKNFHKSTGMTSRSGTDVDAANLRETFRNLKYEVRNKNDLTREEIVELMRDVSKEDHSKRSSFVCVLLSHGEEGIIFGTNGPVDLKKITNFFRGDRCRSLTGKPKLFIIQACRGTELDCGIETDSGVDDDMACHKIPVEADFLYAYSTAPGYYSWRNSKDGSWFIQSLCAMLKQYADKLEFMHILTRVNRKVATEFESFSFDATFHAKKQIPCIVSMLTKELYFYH

Aurora kinase A = Aurora kinase A (Homo sapiens, UniProt O14965); type: functional;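 also: value from the Navigating the Kinome kinase panel profiling, panel entry STK6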
[1] = target: Platelet-derived growth factor receptor beta (Homo sapiens, UniProt P09619); type: functional;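 also: value comes from a kinome panel, with PDGFRB tested as one panel member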
[2] = target: Tyrosine-protein kinase BTK (Homo sapiens, UniProt Q06187); type: functional
Activin receptor type-1 = Activin receptor type-1 (Homo sapiens, UniProt Q04771); experiment: Navigating the Kinome. Panel member name: ACVR1; type: functional
[3] = target: Inhibitor of nuclear factor kappa-B kinase subunit epsilon (Homo sapiens, UniProt Q14164); experiment: Navigating the Kinome. Panel member name: IKBKE; type: functional
[4] = target: Casein kinase I isoform alpha (Homo sapiens, UniProt P48729); type: functional
[5] = target: Protein kinase C theta type (Homo sapiens, UniProt Q04759); experiment: Navigating the Kinome. Panel member name: PRKCQ; type: functional
Activated CDC42 kinase 1 = Activated CDC42 kinase 1 (Homo sapiens, UniProt Q07912); experiment: Navigating the Kinome. Panel member name: ACK1; type: functional
[6] = target: Mitogen-activated protein kinase 8 (Homo sapiens, UniProt P45983); type: functional;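 also: value comes from one member of a kinome-wide kinase profiling panel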
[7] = target: BDNF/NT-3 growth factors receptor (Homo sapiens, UniProt Q16620); type: functional;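 also: NTRK2 measured as one member of a broad kinome-wide kinase profiling panel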
[8] = target: Tyrosine-protein kinase Fyn (Homo sapiens, UniProt P06241); type: functional
[9] = target: Cyclin-dependent kinase 8 (Homo sapiens, UniProt P49336); experiment: Navigating the Kinome. Panel member name: CDK8; type: functional
[10] = target: T2, Dual specificity protein phosphatase 6 (Rattus norvegicus, UniProt Q64346); experiment: MKP-3 phosphatase inhibitors, primary screen, biochemical, rat enzyme, in vitro (AID 425)
T2 sequence (Q64346 whole entry): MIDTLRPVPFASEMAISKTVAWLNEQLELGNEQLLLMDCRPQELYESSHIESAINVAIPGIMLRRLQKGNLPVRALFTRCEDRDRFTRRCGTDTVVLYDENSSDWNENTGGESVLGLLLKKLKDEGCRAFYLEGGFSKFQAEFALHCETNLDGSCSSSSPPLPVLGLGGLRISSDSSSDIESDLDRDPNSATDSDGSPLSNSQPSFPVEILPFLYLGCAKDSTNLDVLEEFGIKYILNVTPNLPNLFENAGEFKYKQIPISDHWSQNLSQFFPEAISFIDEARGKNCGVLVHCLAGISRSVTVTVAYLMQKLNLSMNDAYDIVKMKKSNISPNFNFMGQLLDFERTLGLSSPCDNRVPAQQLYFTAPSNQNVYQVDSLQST

[11] = NIH-3T3 fibroblast cytotoxicity, dose response, cytotoxicity control, cell-based, fluorescence, Alamar Blue, secondary assay (AID 2327); type: functional;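 also: NIH-3T3 mouse fibroblasts cultured with fluconazole at 8 µg/mL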

Chain of Activin receptor type-1 (Q04771 whole entry): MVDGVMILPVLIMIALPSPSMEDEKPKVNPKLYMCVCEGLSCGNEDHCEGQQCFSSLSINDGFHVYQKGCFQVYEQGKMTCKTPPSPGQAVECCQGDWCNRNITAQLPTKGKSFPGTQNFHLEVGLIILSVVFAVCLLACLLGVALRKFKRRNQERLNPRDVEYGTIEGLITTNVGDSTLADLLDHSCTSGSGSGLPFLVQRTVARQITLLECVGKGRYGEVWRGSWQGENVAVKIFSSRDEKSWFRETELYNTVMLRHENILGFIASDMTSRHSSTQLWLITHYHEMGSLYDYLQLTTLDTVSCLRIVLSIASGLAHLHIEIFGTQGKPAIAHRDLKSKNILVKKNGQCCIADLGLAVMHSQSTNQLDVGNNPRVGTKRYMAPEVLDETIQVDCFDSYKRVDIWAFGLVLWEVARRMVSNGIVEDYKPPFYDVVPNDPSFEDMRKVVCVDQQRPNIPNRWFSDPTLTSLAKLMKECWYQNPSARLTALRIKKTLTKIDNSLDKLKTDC
Chain of Cyclin-dependent kinase 8 (P49336 whole entry): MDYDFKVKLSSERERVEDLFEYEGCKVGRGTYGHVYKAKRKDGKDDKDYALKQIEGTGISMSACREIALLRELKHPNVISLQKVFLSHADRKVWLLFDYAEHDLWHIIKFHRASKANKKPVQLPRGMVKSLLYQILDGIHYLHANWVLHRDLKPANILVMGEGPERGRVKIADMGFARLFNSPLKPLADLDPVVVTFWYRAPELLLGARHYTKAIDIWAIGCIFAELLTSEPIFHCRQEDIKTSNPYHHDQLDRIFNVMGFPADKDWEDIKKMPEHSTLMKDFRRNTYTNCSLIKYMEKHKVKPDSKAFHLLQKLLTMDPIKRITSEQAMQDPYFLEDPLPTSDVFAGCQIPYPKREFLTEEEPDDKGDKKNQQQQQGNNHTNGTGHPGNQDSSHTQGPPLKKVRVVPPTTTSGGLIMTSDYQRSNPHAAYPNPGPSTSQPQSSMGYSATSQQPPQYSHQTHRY
Chain of Activated CDC42 kinase 1 (Q07912 whole entry): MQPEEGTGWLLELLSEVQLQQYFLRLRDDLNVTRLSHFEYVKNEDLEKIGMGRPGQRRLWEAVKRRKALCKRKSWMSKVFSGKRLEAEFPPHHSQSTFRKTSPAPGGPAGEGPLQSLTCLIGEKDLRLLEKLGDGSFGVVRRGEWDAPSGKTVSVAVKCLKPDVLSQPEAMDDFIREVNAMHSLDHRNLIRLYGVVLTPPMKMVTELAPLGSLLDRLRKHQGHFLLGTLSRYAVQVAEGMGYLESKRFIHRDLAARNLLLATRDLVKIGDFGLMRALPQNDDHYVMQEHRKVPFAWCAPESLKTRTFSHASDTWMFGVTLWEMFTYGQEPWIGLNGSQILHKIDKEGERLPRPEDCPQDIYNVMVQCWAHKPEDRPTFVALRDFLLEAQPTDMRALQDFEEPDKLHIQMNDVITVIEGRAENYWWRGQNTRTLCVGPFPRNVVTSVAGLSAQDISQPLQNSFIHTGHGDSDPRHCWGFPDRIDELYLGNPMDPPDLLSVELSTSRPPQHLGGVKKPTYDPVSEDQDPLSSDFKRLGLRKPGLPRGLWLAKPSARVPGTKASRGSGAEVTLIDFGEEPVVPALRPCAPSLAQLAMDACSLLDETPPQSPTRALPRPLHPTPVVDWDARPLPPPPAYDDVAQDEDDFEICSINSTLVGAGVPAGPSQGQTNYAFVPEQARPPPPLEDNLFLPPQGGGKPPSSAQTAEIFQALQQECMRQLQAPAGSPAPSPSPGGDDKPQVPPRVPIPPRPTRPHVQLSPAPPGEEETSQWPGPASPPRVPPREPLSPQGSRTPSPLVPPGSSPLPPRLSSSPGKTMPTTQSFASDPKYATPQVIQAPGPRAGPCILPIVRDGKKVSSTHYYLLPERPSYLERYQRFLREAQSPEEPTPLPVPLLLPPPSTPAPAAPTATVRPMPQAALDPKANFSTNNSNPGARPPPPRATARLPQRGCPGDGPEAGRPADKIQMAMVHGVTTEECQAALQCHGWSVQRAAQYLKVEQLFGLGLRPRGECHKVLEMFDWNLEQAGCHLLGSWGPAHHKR
Chain of Protein kinase C theta type (Q04759 whole entry): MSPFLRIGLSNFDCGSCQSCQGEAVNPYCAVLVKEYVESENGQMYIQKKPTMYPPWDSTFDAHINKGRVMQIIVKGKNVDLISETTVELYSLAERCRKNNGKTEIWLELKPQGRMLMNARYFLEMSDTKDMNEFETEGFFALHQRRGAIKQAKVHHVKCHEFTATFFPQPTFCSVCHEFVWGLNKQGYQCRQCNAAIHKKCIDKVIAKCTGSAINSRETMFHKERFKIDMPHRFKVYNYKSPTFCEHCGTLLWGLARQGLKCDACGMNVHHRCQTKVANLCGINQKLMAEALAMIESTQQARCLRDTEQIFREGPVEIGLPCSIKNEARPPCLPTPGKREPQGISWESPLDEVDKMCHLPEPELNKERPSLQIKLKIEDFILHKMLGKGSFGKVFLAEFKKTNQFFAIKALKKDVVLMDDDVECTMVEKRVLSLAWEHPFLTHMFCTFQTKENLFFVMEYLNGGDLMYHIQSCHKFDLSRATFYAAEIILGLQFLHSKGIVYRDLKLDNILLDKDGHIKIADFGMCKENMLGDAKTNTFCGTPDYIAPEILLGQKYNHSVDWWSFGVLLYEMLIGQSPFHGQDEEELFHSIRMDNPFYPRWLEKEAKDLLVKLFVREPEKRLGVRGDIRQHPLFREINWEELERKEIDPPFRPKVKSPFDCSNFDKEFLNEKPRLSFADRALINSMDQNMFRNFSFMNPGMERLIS
Chain of Mitogen-activated protein kinase 8 (P45983 whole entry): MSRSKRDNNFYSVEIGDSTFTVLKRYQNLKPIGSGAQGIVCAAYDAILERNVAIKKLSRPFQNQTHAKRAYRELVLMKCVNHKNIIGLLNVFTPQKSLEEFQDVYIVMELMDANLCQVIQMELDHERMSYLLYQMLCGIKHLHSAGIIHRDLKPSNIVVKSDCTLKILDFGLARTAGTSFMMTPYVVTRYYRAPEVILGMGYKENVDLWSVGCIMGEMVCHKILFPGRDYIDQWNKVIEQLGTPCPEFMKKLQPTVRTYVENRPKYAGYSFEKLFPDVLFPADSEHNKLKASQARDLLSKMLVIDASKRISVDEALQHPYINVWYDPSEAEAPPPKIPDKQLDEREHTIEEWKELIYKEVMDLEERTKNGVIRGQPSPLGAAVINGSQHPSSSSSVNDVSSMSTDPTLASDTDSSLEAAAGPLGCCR
Chain of Tyrosine-protein kinase Fyn (P06241 whole entry): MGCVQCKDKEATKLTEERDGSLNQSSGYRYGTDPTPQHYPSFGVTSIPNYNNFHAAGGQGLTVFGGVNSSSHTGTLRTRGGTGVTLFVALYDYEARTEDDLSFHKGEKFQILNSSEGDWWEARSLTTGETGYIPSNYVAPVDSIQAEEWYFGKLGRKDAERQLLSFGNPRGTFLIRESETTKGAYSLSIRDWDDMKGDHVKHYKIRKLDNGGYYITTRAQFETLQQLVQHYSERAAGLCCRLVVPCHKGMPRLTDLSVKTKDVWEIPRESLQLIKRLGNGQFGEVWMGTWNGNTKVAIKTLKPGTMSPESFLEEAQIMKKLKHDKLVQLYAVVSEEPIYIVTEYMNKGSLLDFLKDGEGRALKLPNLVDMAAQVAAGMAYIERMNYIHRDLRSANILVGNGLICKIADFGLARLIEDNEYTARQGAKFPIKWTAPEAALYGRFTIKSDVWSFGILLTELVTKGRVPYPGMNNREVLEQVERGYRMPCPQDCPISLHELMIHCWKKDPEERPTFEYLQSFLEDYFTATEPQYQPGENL
Chain of Aurora kinase A (O14965 whole entry): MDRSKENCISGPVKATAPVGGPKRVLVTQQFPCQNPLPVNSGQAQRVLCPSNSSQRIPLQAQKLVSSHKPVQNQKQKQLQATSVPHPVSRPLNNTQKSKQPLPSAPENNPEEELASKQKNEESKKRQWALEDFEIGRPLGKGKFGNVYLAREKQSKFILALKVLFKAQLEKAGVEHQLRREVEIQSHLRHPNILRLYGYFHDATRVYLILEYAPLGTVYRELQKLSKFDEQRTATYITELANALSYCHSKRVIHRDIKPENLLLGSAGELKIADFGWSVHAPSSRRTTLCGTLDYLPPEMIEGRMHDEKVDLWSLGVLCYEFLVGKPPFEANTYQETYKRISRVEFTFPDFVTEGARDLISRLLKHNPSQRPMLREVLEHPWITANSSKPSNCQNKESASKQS
Chain of BDNF/NT-3 growth factors receptor (Q16620 whole entry): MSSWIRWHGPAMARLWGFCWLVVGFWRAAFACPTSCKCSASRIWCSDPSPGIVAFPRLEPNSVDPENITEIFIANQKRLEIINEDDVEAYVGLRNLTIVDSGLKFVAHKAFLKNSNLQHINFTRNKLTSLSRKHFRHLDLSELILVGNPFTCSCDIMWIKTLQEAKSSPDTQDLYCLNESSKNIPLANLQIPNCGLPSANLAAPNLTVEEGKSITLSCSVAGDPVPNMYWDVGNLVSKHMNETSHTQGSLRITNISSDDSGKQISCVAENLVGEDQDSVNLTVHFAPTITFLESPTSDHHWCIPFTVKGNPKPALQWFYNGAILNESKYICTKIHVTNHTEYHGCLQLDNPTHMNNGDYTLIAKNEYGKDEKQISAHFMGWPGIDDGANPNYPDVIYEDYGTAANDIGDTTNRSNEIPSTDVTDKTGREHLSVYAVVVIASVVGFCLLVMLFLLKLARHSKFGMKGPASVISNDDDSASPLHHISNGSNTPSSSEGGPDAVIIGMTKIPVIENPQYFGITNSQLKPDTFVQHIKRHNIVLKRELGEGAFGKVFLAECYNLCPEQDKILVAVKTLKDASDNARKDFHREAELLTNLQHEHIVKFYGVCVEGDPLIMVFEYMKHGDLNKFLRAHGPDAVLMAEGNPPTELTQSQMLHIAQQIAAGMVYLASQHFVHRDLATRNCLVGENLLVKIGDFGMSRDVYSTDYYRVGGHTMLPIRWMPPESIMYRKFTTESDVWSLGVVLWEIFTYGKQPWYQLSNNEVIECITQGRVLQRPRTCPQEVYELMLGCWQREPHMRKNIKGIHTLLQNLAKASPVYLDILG

IC50 (Caspase-3): > 100 µM (inactive)
SMILES: O=C(NNc1cc(N2CCCC2)nc(N2CCCC2)n1)c1ccc([N+](=O)[O-])cc1

Ki (Aurora kinase A): 398 nM (active)
Ki [1]: > 2 µM (inactive)
Ki [2]: 3.16 µM (active)
Ki (Activin receptor type-1): 3.16 µM (active)
Ki [3]: > 3.16 µM (inactive)
Ki [4]: 631 nM (active)
Ki [5]: 1.58 µM (active)
Ki (Activated CDC42 kinase 1): > 3.98 µM (inactive)
Ki [6]: 1 µM (active)
Ki [7]: > 3.98 µM (inactive)
Ki [8]: 5.01 µM (active)
Ki [9]: 398 nM (active)
SMILES: O=C(Cc1cccs1)Nc1nc2ccccc2s1

SMILES: O=S(=O)(O)c1cccc2c(N=Nc3ccc(O)c4ncccc34)cccc12
IC50 [10]: 71.5 µM (active)
EC50 [11]: > 160 µM (inactive)
